Results as given in patent US9328117B2, “Bromodomain inhibitors and uses thereof” (Constellation Pharmaceuticals, Inc., priority 2011, dated 2016).

Tests used:
BRD4(BD1) = target: T1, BRD4(BD1) (Homo sapiens, UniProt O60885); experiment: BRD4 AlphaLisa binding assay; settings: BRD4(BD1) 30 nM, biotinylated H4-tetraacetyl peptide 200 nM
T1 construct: His; made in house
Description: A. IC50 Measurements for Inhibitors Using BRD4 AlphaLisa Binding Assay
His/Flag epitope tagged BRD4 BD142-168 was cloned, expressed and purified to homogeneity. BRD4 binding and inhibition was assessed by monitoring the engagement of biotinylated H4-tetraacetyl peptide (Millipore #12-379) with the target using the AlphaLisa technology (Perkin-Elmer). Specifically, in a 384 well ProxiPlate BRD4(BD1) (30 nM final) was combined with peptide (200 nM final) in 40 mM HEPES (pH 7.0), 40 mM NaCl, 1 mM DTT, 0.01% (w/v) BSA, and 0.008% (w/v) Brij-35 either in the presence of DMSO (final 1.2% DMSO) or compound dilution series in DMSO. After 20 minute incubation at room temperature Alpha streptavidin donor beads and AlphaLisa anti-Flag acceptor beads were added to a final concentration of 10 ug/mL each. After three hours equilibration plates were read on an Envision instrument and IC50s calculated using a four parameter non-linear curve fit.

[1] = system: MYC mRNA in MV4:11 (AML) cells; experiment: cMyc RNA quantification assay (QuantiGene), MV4:11; assay type: cell-based; settings: Homo sapiens; MV4-11 cells, 4 h
Description: (§1) B. cMyc RNA quantification assay (QuantiGene® Assay)
(§2) MV4:11 (AML) or Raji (Burkitt lymphoma) cells were seeded in a 96-well plate and incubated in the presence of various concentrations of compounds for 4 h. Relative mRNA levels were quantitated by using QuantiGene 2.0 assay (Affymetrix) according to the manufacturer's recommendation. Signals were detected by using an Envision plate reader (Perkin-Elmer). Biological duplicates were averaged and normalized to vehicle (DMSO) control to calculate percent MYC mRNA levels.

[2] = system: IL-6 secretion in LPS-treated THP-1 cells; experiment: Cell-based IL-6 quantification assay (ELISA, Mesoscale); settings: Homo sapiens, LPS 4 μg/mL, 16 h, normalised to CellTiter-Glo
Description: C. Cell-Based IL-6 Quantification Assay (ELISA, Mesoscale Assay):
100,000 THP-1 cells were seeded in RPMI1640-10% FBS in 96-well plates. LPS (E. Coli Invitrogen) in RPMI-10% FBS at a final concentration of 4 μg/mL was added to the wells and the cells are then incubated in the presence of various concentrations of compounds for 16 h. Plates are spun ([…], 5 min), an aliquot of 25 uL supernatant is transferred in to an ELISA plate (Mesoscale technology, MSD) and the detection of IL-6 is performed using manufacturer's instructions. The amount of cells in each well is assessed using CellTiter-Glo® (Promega). The ratio of ELISA value/CellTiter-Glo value is used to calculate the percent of inhibition of IL-6 secretion.

[3] = system: MYC mRNA in Raji (Burkitt lymphoma) cells; experiment: cMyc RNA quantification assay (QuantiGene), Raji; assay type: cell-based; settings: Homo sapiens, 4 h
Description: as §1, §2

IC50 (BRD4(BD1)) [nM] | IC50 [1] [nM] | IC50 [3] [nM] | SMILES | IC50 [2] [nM]
< 500 | < 500 | – | CCNC(=O)Nc1cc(N(C)[C@@H](C)c2ccc(Cl)cc2)nn2c(C)nnc12 [Compound 13] | < 500
< 500 | – | < 500 | CCOC(=O)Nc1cc(N(C)[C@@H](C)c2ccccc2)nn2c(C)nnc12 [Compound 11] | < 500
< 500 | – | > 1000 | Cc1nnc2c(NC(=O)N(C)C)cc(N(C)[C@@H](C)c3ccccc3)nn12 [Compound 8, (S)-1,1-dimethyl-3-(3-methyl-6-(methyl(1-phenylethyl)amino)-[1,2,4]triazolo[4,3-b]pyridazin-8-yl)urea] | 500 to 1000
< 500 | < 500 | – | CCNC(=O)Nc1cc(N(C)[C@@H](C)c2ccccc2)nn2c(C(F)(F)F)nnc12 [Compound 14] | < 500
> 1000 | – | – | Cc1nnc2ccc(N3CCCC3c3ccccc3)nn12 (stereo not shown) [Compound 10, 3-methyl-6-(2-phenylpyrrolidin-1-yl)-[1,2,4]-triazolo[4,3-b]pyridazine] | –
< 500 | < 500 | – | CCNC(=O)Nc1cc(N(C)[C@@H](C)c2ccc(F)cc2)nn2c(C)nnc12 [Compound 12] | < 500
> 1000 | > 1000 | – | C[C@@H](c1ccccc1)N(C)c1ccc2nnc(C#N)n2n1 [Compound 9, (S)-6-(methyl(1-phenylethyl)amino)-[1,2,4]triazolo[4,3-b]pyridazine-3-carbonitrile] | > 1000

Continued, compound first:

SMILES | IC50 (BRD4(BD1)) [nM] | IC50 [1] [nM] | IC50 [3] [nM] | IC50 [2] [nM]
Cc1nnc2c(N)cc(N(C)[C@@H](C)c3ccccc3)nn12 [Compound 6, (S)-N^6,3-dimethyl-N^6-(1-phenylethyl)-[1,2,4]triazolo[4,3-b]pyridazine-6,8-diamine] | < 500 | – | – | < 500
CCNC(=O)Nc1cc(N(C)[C@@H](C)c2ccccc2)nn2c(C)nnc12 [Compound 5, (S)-1-ethyl-3-(3-methyl-6-(methyl(1-phenylethyl)amino)-[1,2,4]triazolo[4,3-b]pyridazin-8-yl)urea] | < 500 | – | < 500 | < 500
Cc1nnc2ccc(NC(C)c3ccccc3)nn12 (racemic) [Compound 1, rac-3-methyl-N-(1-phenylethyl)-[1,2,4]triazolo[4,3-b]pyridazin-6-amine] | > 1000 | > 1000 | – | > 1000
Cc1nnc2ccc(N(C)[C@@H](C)c3ccccc3)nn12 [Compound 3, (S)-N,3-dimethyl-N-(1-phenylethyl)-[1,2,4]triazolo[4,3-b]pyridazin-6-amine] | < 500 | – | – | > 1000
Cc1nnc2c(C(N)=O)cc(N(C)[C@@H](C)c3ccccc3)nn12 [Compound 7, (S)-3-methyl-6-(methyl(1-phenylethyl)amino)-[1,2,4]triazolo[4,3-b]pyridazine-8-carboxamide] | > 1000 | – | – | > 1000
Cc1nnc2ccc(N(C)[C@H](C)c3ccccc3)nn12 [Compound 4, (R)-N,3-dimethyl-N-(1-phenylethyl)-[1,2,4]triazolo[4,3-b]pyridazin-6-amine] | > 1000 | – | – | –
Cc1nnc2ccc(N(C)C(C)c3ccccc3)nn12 (stereo not shown) [Compound 2, N,3-dimethyl-N-(1-phenylethyl)-[1,2,4]triazolo[4,3-b]pyridazin-6-amine] | 500 to 1000 | – | – | > 1000
